Data from publication PMC8068134 (Toxins, 2021).
Read-outs that look alike come from different tables or passages of the source. Numbered stars: 1 amine (or outer) side, 2 acyl side, 3 side chain; on linkers, the order of the positions; unused ones are H or OH. Bridge positions count the residues as written; N and C are the ends. Square brackets hold non-standard residues; d marks the D form. Peptide text beside a SMILES is read from it. hTyr = N[C@@H](CCc1ccc(O)cc1)C(=O)O; NMeA = CN[C@@H](C)C(=O)O; CO = O=C([*:1])[*:2]

Legend:
physchem = assay type: physicochemical; conditions: cells or culture medium, 3rd day, mean ± SD, n = 3, read-out: Peptide Remaining Concentration (%), Negative Control, 3rd Day
Protocol: OD-corrected P. toxinivorans was transferred to the 96-well microplate in a solution with fresh culture media and individual peptides. For all experimental conditions, microplates were prepared to allow different sampling times over 7 days of incubation in a shaker incubator at 150 rpm and 28 °C. Three different plates were initially prepared maintaining the same conditions, and they were, respectively, taken to be considered as sampling time at 0, 3, and 7th days. This procedure was established in order to sample only once from each well to avoid the effect of differing volumes and potential contamination. At each sampling time, 150 µL were taken and added to 150 µL of 80% aqueous methanol solution with 2% formic acid (in a 1.5 mL centrifuge tube) in order to kill bacteria and stop their metabolism, as well as to precipitate large proteins, which could affect analytical procedures. Samples were centrifuged for 15 min at 13,000× g. Supernatants were recovered, 1:10 diluted (100:900 μL) in aqueous methanol 80% and stored at −20 °C until ultrahigh performance liquid chromatography coupled to mass spectrometry analysis (UPLC–MS). This experimental design was applied in all experiments in order to evaluate the biodegradation of peptides by P. toxinivorans. All experimental conditions were carried out in biological replicates (n = 3) and with negative controls without bacteria.
All peptides studied were analyzed by UPLC–PDA–MS/MS (Waters®, Manchester, UK) as described previously by Turner et al.. Briefly, chromatographic separation was carried out using a Waters ACQUITY UPLC BEH C18 column (1.7 µm, 2.1 × 100 mm) held at 60 °C. Samples were kept in the sample manager at 10 °C and the injection volume was 5 µL. Mobile phase consisted of (A) water + 0.025% formic acid and (B) acetonitrile + 0.025% formic acid at a flow rate of 0.6 mL/min. The gradient consisted of 2% B initial condition rising to 25% B at 0.5 min holding until 1.5 min, rising to 40% B at 3.0 min, increasing further to 50% B at 4 min, a quick rise to 95% B and 4.1 min and held until 4.5 min before dropping back to 2% B at 5 min. Detection wavelength was set at 238 nm. Mass spectrometric detection was performed with a triple quadrupole mass spectrometer (Waters Xevo TQ-XS, Manchester, UK) equipped with an electrospray ionization (ESI) interface operating in positive ionization mode. Operational parameters were as follow: 150 °C source temperature, 600 °C desolvation temperature, 600 L/h desolvation gas flow (N2), 150 L/h cone gas flow, and 0.15 mL/min collision gas flow (Ar). Capillary voltage was held at 1.0 kV. Multiple Reaction Monitoring (MRM) transitions used as well as retention time, chemical structure, and respective formula of peptides can be found in Table S2. […]

[1] = Paucibacter toxinivorans (2C20) culture in R2A media with cyanopeptide mix; conditions: Paucibacter toxinivorans 2C20 strain, 28 °C, up to 7 days
[2] = Y2 strain culture; individual peptide, peptide mix, and M. aeruginosa crude extract; conditions: Sphingosinicella microcystinivorans (Y2 strain)
[3] = enzymatic biodegradation product of Sphingopyxis sp. USTB05; conditions: cited from earlier work
[4] = enzymatic activity of a Sphingomonas species that possess mlr pathway; conditions: cited from earlier work
[5] = Paucibacter toxinivorans (2C20) culture (OD600 0.4) in R2A media, pure MC-LR; conditions: Paucibacter toxinivorans 2C20 strain, 28 °C, up to 7 days
[6] = Individual peptide, 10 μg/mL, UPLC-MS/MS

CC[C@H](C)[C@@H]1NC(=O)[C@@H]2CSC(=N2)[C@@H]([C@@H](C)CC)NC(=O)c2csc(n2)CNC(=O)[C@H]2N=C1O[C@@H]2C [AC-A, aerucyclamide A]
remaining at 72 h (physchem; In MIX: MC-LR 10 μg/mL, other cyanopeptides 1 µg/mL): 109 ± 5.6%

Adda-Glu-Mdha-Ala-Leu-Masp-Phe
cleaved bond [1]: Phe-Adda, day 7
not cleaved [2]: did not degrade any cyanobacterial peptides

CSCC[C@@H]1NC(=O)[C@@H]2CSC(=N2)[C@@H](Cc2ccccc2)NC(=O)c2csc(n2)CNC(=O)[C@H]2N=C1O[C@@H]2C [AC-D, aerucyclamide D]
remaining at 72 h (physchem; [6]): 113 ± 1.6%

Adda-Glu-Mdha-Ala-Tyr-Masp-Arg
fragment found [3]: linearized MC-YR (peptide C)
cleaved bond [1]: Arg-Adda, day 7
not cleaved [2]: did not degrade any cyanobacterial peptides

CC(C)[C@@H]1NC(=O)[C@H](NC(=O)N[C@@H](Cc2ccc(O)cc2)C(=O)O)CCCCNC(=O)[C@H](Cc2ccccc2)NC(=O)[C@H](C)N(C)C(=O)[C@H](CCc2ccc(O)cc2)NC1=O [ANBP-A, anabaenopeptin A] ({Tyr-CO}-[dK]V[hTyr][NMeA]F; lactam 1-C)
remaining at 72 h (physchem; [6]): 112 ± 8.1%

CC(C)[C@@H]1NC(=O)[C@H](NC(=O)N[C@@H](CCCNC(=N)N)C(=O)O)CCCCNC(=O)[C@H](Cc2ccccc2)NC(=O)[C@H](C)N(C)C(=O)[C@H](CCc2ccc(O)cc2)NC1=O [ANBP-B, anabaenopeptin B] ({Arg-CO}-[dK]V[hTyr][NMeA]F; lactam 1-C)
remaining at 72 h (physchem; [6]): 100 ± 17.1%

Adda-Glu-Mdha-Ala-Leu-Masp-Arg
fragment found [4]: linearized MC-LR (biodegradation product A)
not cleaved [2]: did not degrade any cyanobacterial peptides
cleaved bond [5]: Arg-Adda, day 3
